Our source for the Kd values is article PMC3499775 (Journal of pharmaceutical and biomedical analysis, 2012).

Molecules are shown by their SMILES.

The target in the assay is T1, breast cancer resistance protein (BCRP) (Homo sapiens, UniProt Q9UNQ0).
T1 sequence (Q9UNQ0 1-655): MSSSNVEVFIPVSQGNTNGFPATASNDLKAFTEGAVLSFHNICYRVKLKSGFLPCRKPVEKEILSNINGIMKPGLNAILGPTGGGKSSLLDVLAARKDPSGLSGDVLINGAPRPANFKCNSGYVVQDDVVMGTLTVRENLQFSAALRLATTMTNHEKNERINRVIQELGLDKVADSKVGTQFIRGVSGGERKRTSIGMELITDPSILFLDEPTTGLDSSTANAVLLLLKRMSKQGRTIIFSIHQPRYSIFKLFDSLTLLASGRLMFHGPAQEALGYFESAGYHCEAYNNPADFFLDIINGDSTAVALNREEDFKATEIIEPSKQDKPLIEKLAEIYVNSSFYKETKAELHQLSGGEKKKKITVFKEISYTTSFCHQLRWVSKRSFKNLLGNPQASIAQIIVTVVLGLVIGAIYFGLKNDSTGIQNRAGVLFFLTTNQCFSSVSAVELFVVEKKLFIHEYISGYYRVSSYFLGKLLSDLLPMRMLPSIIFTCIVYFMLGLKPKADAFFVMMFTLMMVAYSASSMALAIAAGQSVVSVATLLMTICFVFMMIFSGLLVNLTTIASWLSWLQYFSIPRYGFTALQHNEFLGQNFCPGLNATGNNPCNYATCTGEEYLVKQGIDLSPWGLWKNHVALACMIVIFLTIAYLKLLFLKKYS
The experiment in a line: frontal displacement affinity chromatography. Format: binding. The note with it: nmac-bcrp column.
What is called Kd is a measure of binding affinity in units of concentration. Low values mean tighter binding, high ones weaker binding. Regarding `COc1ccc(-c2coc3cc(O)cc(O)c3c2=O)cc1` [Biochanin A], the Kd came out at 1.05 µM.
For `COc1cc([C@@H]2c3cc4c(cc3[C@@H](O[C@@H]3O[C@@H]5CO[C@@H](C)O[C@H]5[C@H](O)[C@H]3O)[C@H]3COC(=O)[C@H]23)OCO4)cc(OC)c1O` [Etoposide] the value was 4.55 µM; for `COc1ccc2c3c([nH]c2c1)[C@H](C=C(C)C)N1C(=O)[C@@H]2CCCN2C(=O)[C@@H]1C3` [FTC, Fumitremorgin C], 1.63 µM.
